The values below come from patent US9078446B2, “Use of N-(tetrazol-4-yl)- or N-(triazol-3-yl)arylcarboxamides or their salts for controlling unwanted plants in areas of transgenic crop plants being tolerant to HPPD inhibitor herbicides” (BAYER INTELLECTUAL PROPERTY GMBH, priority 2011, dated 2015).

The structures appear in SMILES notation.

For experiment [1], the target named is T1, Arabidopsis thaliana HPPD (AtHPPD) (Arabidopsis thaliana, UniProt P93836).
T1 construct: His6 (N); made in house; host or cells: E. coli K-12 BL21
T1 sequence (P93836 1-445): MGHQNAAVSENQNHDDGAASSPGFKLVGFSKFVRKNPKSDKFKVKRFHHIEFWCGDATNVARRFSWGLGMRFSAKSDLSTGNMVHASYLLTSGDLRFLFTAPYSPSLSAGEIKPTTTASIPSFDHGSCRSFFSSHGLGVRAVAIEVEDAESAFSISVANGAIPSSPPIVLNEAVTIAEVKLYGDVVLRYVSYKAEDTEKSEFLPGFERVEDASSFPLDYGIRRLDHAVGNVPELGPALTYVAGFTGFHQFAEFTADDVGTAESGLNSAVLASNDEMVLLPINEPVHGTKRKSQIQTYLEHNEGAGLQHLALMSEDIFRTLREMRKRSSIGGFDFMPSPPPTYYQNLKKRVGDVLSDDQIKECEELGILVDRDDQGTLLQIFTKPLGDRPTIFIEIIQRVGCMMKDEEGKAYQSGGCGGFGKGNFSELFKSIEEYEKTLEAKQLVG
The experiment can be described thus: Determination of HPPD activity in presence of HPPD inhibitor (percentage of inhibition). Format: biochemical. The following applies: 5.0×10^−6M of compound, compared to activity in absence of compound. The procedure:
(§1) The HPPD activity was checked by the standard spectrophotmetric assay (method extensively described in WO 2009/144079)
(§2) Level of tolerance of HPPD proteins obtained from different organisms was determined according to the procedure as described in PCT/EP2010/070575.
(§3) Table E1: Determination of Percentage of Inhibition in Presence of 5.0×10^−6M of Compound “4-137” Compared to the Activity Measured in Absence of Compound No. “4-137” With HPPD Originated from Arabidopsis thaliana (AtHPPD), Mutated Pseudomonas fluorescens PfHPPD-G336W, Avena sativa (AvHPPD), FMP27 (Derived from Kordia algicida) and FMP37 (Derived from Blepharisma japonicum).

For experiment [2], the system named is Avena sativa HPPD (AvHPPD). Described as above. Format: biochemical. The procedure:
as §1, §2, §3

The test system of experiment [3] is FMP37 (HPPD derived from Blepharisma japonicum). The experiment is described as above. Format: biochemical. The procedure:
as §1, §2, §3

Experiment [4] concerns FMP27 (HPPD derived from Kordia algicida). The description is as above. It is filed as biochemical. The method, then:
as §1, §2, §3

The test system of experiment [5] is mutated Pseudomonas fluorescens PfHPPD-G336W. The description is as above. It is filed as biochemical. The procedure: as §1, §2, §3
The subject of experiment [6] is soybean plants expressing Pseudomonas fluorescens G336W mutant, FMP 27 and FMP 37. The experiment can be described thus: Tolerance to HPPD inhibitors of soybean plants expressing tolerant HPPD enzymes. The following applies: T1 soybean plants; one week after application. Format: in vivo. The procedure, abridged:
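T1 soybean lines carry chloroplast-targeted HPPD genes from Blepharisma japonicum or Kordia algicida under the CaMV35S promoter, with T0 events selected for tembotrione tolerance. T1 seedlings are raised singly in pots under standard conditions. Plants are sprayed two weeks later with N-(tetrazol-4-yl)- or N-(triazol-3-yl)arylcarboxamides.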

In experiment [7] the test system is cotton plants expressing FMP 27 and FMP 37. The experiment can be described thus: Tolerance to HPPD inhibitors of cotton plants expressing tolerant HPPD enzymes. It is filed as in vivo. As to conditions: T1 cotton plants; one week after application. The gist of the method:
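Transgenic cotton expressed Blepharisma japonicum (FMP37) or Kordia algicida (FMP27) HPPD under CaMV35S with an N-terminal chloroplast transit peptide. T1 plants came from tembotrione-tolerant T0 events, were grown in single pots, and were sprayed at least 4 weeks later with N-(tetrazol-4-yl)- or N-(triazol-3-yl)arylcarboxamides.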

With `Cc1c(C(=O)Nc2nnnn2C)ccc(C(F)(F)F)c1S(C)(=O)=O` [Compound 4-137], the Inhibition % is listed as 100% in experiment [1]; 93% in experiment [2] (5.0×10^−6M of compound, compared to activity in absence of compound, AvHPPD); 82% in experiment [3] (5.0×10^−6M of compound, compared to activity in absence of compound, FMP37); 90% in experiment [4] (5.0×10^−6M of compound, compared to activity in absence of compound, FMP27); 92% in experiment [5] (5.0×10^−6M of compound, compared to activity in absence of compound, PfHPPD-G336W). The “tolerance/sensitivity of the HPPD to the inhibitor compared to Arabidopsis thaliana HPPD” value in experiment [2] (AvHPPD versus AtHPPD, identical experimental conditions) was “less sensitive”; in experiment [3] (FMP37 versus AtHPPD, identical experimental conditions), “less sensitive”; in experiment [4] (FMP27 versus AtHPPD, identical experimental conditions), “less sensitive”; in experiment [5] (PfHPPD-G336W versus AtHPPD, identical experimental conditions), “less sensitive”. Moreover, in experiment [6], the “tolerance of transgenic plants compared to the wild-type soybean plants” value is on record as “superior tolerance”. The “tolerance of transgenic plants compared to the wild-type cotton plants” value in experiment [7] is “superior tolerance”.
